Data published in US7524866B2, “Prevention and treatment of androgen—deprivation induced osteoporosis” (GTx, Inc., priority 2001, dated 2009).

Assays:
rat Osteocalcin in serum = assay: Rat Osteocalcin EIA in serum, orchidectomy model (Example 3); assay type: in vivo; conditions: castrated rats
Protocol: (§1) Male Sprague-Dawley rats (Harlan Sprague Dawley) were placed on study at 14-weeks of age. They were randomized and divided into five treatment groups: vehicle only (placebo, or P) after sham operation, vehicle only after orchidectomy (Orx), Toremifene (5 mg/kg/day) after sham-operation, and Toremifene after orchidectomy, and 17-β-estradiol (0.5 mg/kg/day) after orchidectomy. Test articles were delivered subcutaneously by Alzet pumps. Pumps were re-implanted every 30 days until the end of the study. Five to six animals from each group were sacrificed after 60 and 120 days of treatment, and femurs were harvested, stripped of soft tissue and muscle, and stored individually in polypropylene vials at −80° C. until analysis of bone density and mechanical strength testing. Additionally, serum was collected on days 15, 30, 60, 90 and 120, to measure markers of bone metabolism and to perform serum chemistry.
After collection, serum was divided into 3 aliquots and stored at −80° C. until analysis. 125 ul for serum biochemistry performed by AniLytics, Gaithersburg, Md. (Bone-Specific Alkaline Phosphatase, Calcium, Phosphorus, Creatinine and Bilirubin). 100 ul for serum Rat Osteocalcin ELISA and Serum RatLaps ELISA for C-terminal telopeptides determination. The rest of the collected serum was left for repeated test if necessary.
Rat Osteocalcin EIA, Biomedical Technologies, MA
This assay is specific for rat Osteocalcin and both carboxylated and decarboxylated rat Osteocalcin are recognized. A monoclonal antibody against the N-terminal region of Osteocalcin is bound to the polystyrene wells. The assay was performed in duplicates. 100 ul of standards, control and 1 to 20 diluted samples were added to appropriate wells and incubated overnight at 4 C. After washing the strips, 100 ul of Goat polyclonal antibody of high specificity for C-terminus of rat Osteocalcin was added and incubated 60 min at 37 C. […] The reaction was stopped, and the absorbance was measured at 450 nm. […] Sample osteocalcin concentrations were determined by interpolation.

[1] = tested on: orchidectomized (Orx/Cx) male Sprague-Dawley rats; assay: Distal right femur cancellous pQCT (Example 3); assay type: in vivo, rat; conditions: Toremifene 5 mg/kg/day; for cancellous bone mineral content and density (Orx-induced decrease of 34%): Orx rats, 17-β-Estradiol 0.5 mg/kg/day s.c.; for Total Bone Area / Total Bone Content / Total Bone Density / Trabecular Area / Trabecular Content / Trabecular Density: castrated (Cx) rats, distal right femur pQCT, mean, n=5, 17-β-estradiol 0.5 mg/kg/day s.c.
Protocol: as §1
Peripheral Quantitative Computed Tomography (pQCT)
Right femurs were subjected to pQCT analysis using a Stratec XCT-RM with associated software (Stratec Medizintechnik GmbH, Pforzheim, Germany. Software version 5.40 C). Femurs were scanned at two sites, 20% and 50% of the total femoral length measured from the distal femur. The position was verified using scout views, and scan results from two 0.5 mm slices perpendicular to the long axis of the femur shaft were recorded.

[2] = tested on: orchidectomized rats (ORX); assay: Ex vivo DXA of the femur (BMC, BA, BMD) (Example 4); assay type: in vivo, rat; conditions: for Distal femur Bone Area / Distal femur Bone Mineral Content / Distal femur Bone Mineral Density / Midshaft femur Bone Area / Midshaft femur Bone Mineral Content / Midshaft femur Bone Mineral Density / Proximal femur Bone Area / Proximal femur Bone Mineral Content / Proximal femur Bone Mineral Density / Whole femur Bone Area / Whole femur Bone Mineral Content / Whole femur Bone Mineral Density: ORX rats, 6 wks, mean; for bone mass of the whole femur (DXA): 6 weeks of treatment; for loss in bone mineral density at the proximal femur (DXA): 10 mg/kg/d Tor, E 0.2 mg/kg/d; for bone density at the distal femur (DXA): 10 mg/kg/d toremifene, E 0.2 mg/kg/d (p<0.05 vs. Orx+Vehicle for E)
Protocol: (§2) Eight month-old male Sprague Dawley rats were either sham-operated (SHAM) or orchidectomized (ORX). Treatment began immediately following surgery. The treatment groups were as described in Table 5.
Ex vivo DXA analysis was performed on the vertebra (L5) using a PIXImus instrument and associated animal research software (Lunar Corporation, Madison, Wis.). Bone mineral content (BMC), bone area (BA) and bone mineral density (BMD) are reported. Ex vivo DXA analysis was performed on the femur using a pDXA Sabre and associated animal research software (Norland Medical Systems, Inc., Fort Atkinson, Wis.). BMC, BA and BMD are reported for four regions of interest: whole femur, 25% distal femur, 25% proximal femur and 50% of midshaft femur.

Orx rat = assay: Prostate weight in the Orx rat (Example 4); assay type: in vivo; conditions: Orx rat (Orx decreased prostate weight by 77%); FIG. 3
From the text: as §2

[3] = tested on: men with high-grade prostatic intraepithelial neoplasia (HGPIN); assay: Phase IIa clinical trial: bone turnover markers (serum calcium, alkaline phosphatase) in men treated with Toremifene; assay type: in vivo, human; conditions: 18 men with HGPIN, 60 mg/d Toremifene
Protocol: In a Phase IIa clinical trial to determine whether Toremifene has chemopreventive activity against prostate cancer, 18 men with high-grade prostatic intraepithelial neoplasia (HGPIN) were treated with 60 mg/d of Toremifene for 4 months.

[4] = up to 120 days, Toremifene 5 mg/kg/day, 17-β-estradiol 0.5 mg/kg/day s.c., FIG. 2B
[5] = Toremifene 5 mg/kg/d, Estradiol 0.2 mg/kg/d

Compound: C[C@]12CC[C@@H]3c4ccc(O)cc4CC[C@H]3[C@@H]1CC[C@@H]2O [17-β-Estradiol]
- serum osteocalcin levels (rat Osteocalcin in serum; [4]): significantly reduce osteocalcin levels to below that of intact control rats
- cancellous bone mineral content and density (Orx-induced decrease of 34%) [1]: fully prevent this cancellous bone loss
- Total Bone Area [1]: 15.95 mm^2
- Total Bone Content [1]: 11.01 mg/mm
- Total Bone Density [1]: 690.74 mg/mL
- Trabecular Area [1]: 7.17 mm^2
- Trabecular Content [1]: 1.52 mg/mm
- Trabecular Density [1]: 210.28 mg/mL
- Distal femur Bone Area [2, 5]: 0.674 cm^2
- Distal femur Bone Mineral Content [2, 5]: 0.162 gm
- Distal femur Bone Mineral Density [2, 5]: 0.240 gm/cm^2
- Midshaft femur Bone Area [2, 5]: 1.128 cm^2
- Midshaft femur Bone Mineral Content [2, 5]: 0.281 gm
- Midshaft femur Bone Mineral Density [2, 5]: 0.250 gm/cm^2
- Proximal femur Bone Area [2, 5]: 0.685 cm^2
- Proximal femur Bone Mineral Content [2, 5]: 0.167 gm
- Proximal femur Bone Mineral Density [2, 5]: 0.245 gm/cm^2
- Whole femur Bone Area [2, 5]: 2.480 cm^2
- Whole femur Bone Mineral Content [2, 5]: 0.609 gm
- Whole femur Bone Mineral Density [2, 5]: 0.246 gm/cm^2
- bone mineral density at the midshaft femur (DXA) ([2]; Orx rats, 6 weeks): did not show any effect
- bone mass of the whole femur (DXA) ([2]; Orx rats): did not exhibit any significant effect
- loss in bone mineral density at the proximal femur (DXA) ([2]; Orx rats, 6 weeks): somewhat helpful in preventing this loss
- bone density at the distal femur (DXA) ([2]; Orx rats, 6 weeks): significantly improved overall density
- prostate weight (Orx rat): no effect on prostate weight

Compound: CN(C)CCOc1ccc(/C(=C(/CCCl)c2ccccc2)c2ccccc2)cc1 [Toremifene]
- serum osteocalcin levels (rat Osteocalcin in serum; 15 days (p<0.05) and 30 days (p<0.02), Toremifene 5 mg/kg/day s.c., FIG. 2A): significantly reduced the osteocalcin levels in castrated animals to intact control levels
- serum osteocalcin levels (rat Osteocalcin in serum; [4]): significantly reduce osteocalcin levels to below that of intact control rats
- cancellous bone mineral content and density (Orx-induced decrease of 34%) [1]: partially prevented this decrease
- Total Bone Area [1]: 15.96 mm^2
- Total Bone Content [1]: 10.69 mg/mm
- Total Bone Density [1]: 669.74 mg/mL
- Trabecular Area [1]: 7.18 mm^2
- Trabecular Content [1]: 1.13 mg/mm
- Trabecular Density [1]: 157.56 mg/mL
- Distal femur Bone Area [2, 5]: 0.649 cm^2
- Distal femur Bone Mineral Content [2, 5]: 0.145 gm
- Distal femur Bone Mineral Density [2, 5]: 0.224 gm/cm^2
- Midshaft femur Bone Area [2, 5]: 1.086 cm^2
- Midshaft femur Bone Mineral Content [2, 5]: 0.271 gm
- Midshaft femur Bone Mineral Density [2, 5]: 0.249 gm/cm^2
- Proximal femur Bone Area [2, 5]: 0.658 cm^2
- Proximal femur Bone Mineral Content [2, 5]: 0.154 gm
- Proximal femur Bone Mineral Density [2, 5]: 0.234 gm/cm^2
- Whole femur Bone Area [2, 5]: 2.389 cm^2
- Whole femur Bone Mineral Content [2, 5]: 0.570 gm
- Whole femur Bone Mineral Density [2, 5]: 0.238 gm/cm^2
- Distal femur Bone Area ([2]; Toremifene 10 mg/kg/d): 0.659 cm^2
- Distal femur Bone Mineral Content ([2]; Toremifene 10 mg/kg/d): 0.152 gm
- Distal femur Bone Mineral Density ([2]; Toremifene 10 mg/kg/d): 0.230 gm/cm^2
- Midshaft femur Bone Area ([2]; Toremifene 10 mg/kg/d): 1.094 cm^2
- Midshaft femur Bone Mineral Content ([2]; Toremifene 10 mg/kg/d): 0.286 gm
- Midshaft femur Bone Mineral Density ([2]; Toremifene 10 mg/kg/d): 0.261 gm/cm^2
- Proximal femur Bone Area ([2]; Toremifene 10 mg/kg/d): 0.672 cm^2
- Proximal femur Bone Mineral Content ([2]; Toremifene 10 mg/kg/d): 0.164 gm
- Proximal femur Bone Mineral Density ([2]; Toremifene 10 mg/kg/d): 0.244 gm/cm^2
- Whole femur Bone Area ([2]; Toremifene 10 mg/kg/d): 2.420 cm^2
- Whole femur Bone Mineral Content ([2]; Toremifene 10 mg/kg/d): 0.601 gm
- Whole femur Bone Mineral Density ([2]; Toremifene 10 mg/kg/d): 0.248 gm/cm^2
- bone mineral density at the midshaft femur (DXA) ([2]; Orx rats, 6 weeks): did not show any effect
- bone mass of the whole femur (DXA) ([2]; Orx rats): did not exhibit any significant effect
- loss in bone mineral density at the proximal femur, as in distal femur (DXA) ([2]; Orx rats, 6 weeks, 5 mg/kg/d Tor): ineffective
- loss in bone mineral density at the proximal femur (DXA) ([2]; Orx rats, 6 weeks): somewhat helpful in preventing this loss
- bone density at the distal femur (DXA) ([2]; Orx rats, 6 weeks): prevented Orx-related loss of bone density
- alkaline phosphatase, change compared to baseline (mean) ([3]; Day 60, p<0.001): −18.7
- alkaline phosphatase, change compared to baseline (mean) ([3]; Day 120, p<0.001): −21.0
- serum calcium, reduction from baseline (mean) ([3]; Day 120, p=0.005): −0.12
- prostate weight (Orx rat): no effect on prostate weight
